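Test compounds were applied to cells in 96-well plates for 48 hours at 5 doses. GI50 marks 50% less growth. The concentration for full growth arrest is given as TGI.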
Tests used:
Test in all cases: DTP human tumour cell line panel, 48 h
LOX IMVI melanoma = test system: LOX IMVI melanoma
A498 renal = test system: A498 renal
SF-539 CNS = test system: SF-539 CNS
HOP-62 NSCLC = test system: HOP-62 NSCLC
HCT-15 colon = test system: HCT-15 colon
SF-295 CNS = test system: SF-295 CNS
CAKI-1 renal = test system: CAKI-1 renal
UACC-257 melanoma = test system: UACC-257 melanoma
MOLT-4 leukemia = test system: MOLT-4 leukemia
NCI-H226 lung = test system: NCI-H226 lung

SMILES	TGI (LOX IMVI melanoma)	TGI (A498 renal)	TGI (SF-539 CNS)	TGI (HOP-62 NSCLC)	TGI (HCT-15 colon)	TGI (SF-295 CNS)	TGI (CAKI-1 renal)	TGI (UACC-257 melanoma)	TGI (MOLT-4 leukemia)	TGI (NCI-H226 lung)	GI50 (HCT-15 colon)	GI50 (SF-295 CNS)	GI50 (CAKI-1 renal)	GI50 (NCI-H226 lung)	GI50 (MOLT-4 leukemia)	GI50 (A498 renal)	GI50 (UACC-257 melanoma)
Cc1c2ccccc2nc2[nH]c3ccncc3c12	45.4 µM	> 100 µM	> 100 µM	62 µM	> 100 µM	> 100 µM	96.7 µM	> 100 µM	> 100 µM								
N=c1nc(N)nc(N)n1-c1ccc(S(N)(=O)=O)cc1	> 100 µM	> 100 µM		> 100 µM	> 100 µM	> 100 µM	> 100 µM	> 100 µM	> 100 µM	> 100 µM							
CCOC(=O)C1=C(C)N2CCCOC2(C)C(C(=O)OC)C1c1cccc([N+](=O)[O-])c1 (centres undefined)			> 100 µM	> 100 µM		> 100 µM	> 100 µM	> 100 µM	> 100 µM	> 100 µM							
CN(C)CCNc1ccc2nnn3c4ccc(Cl)cc4c(=O)c1c23	9.66 µM	11.3 µM	16.2 µM	21.4 µM	14.8 µM	15.7 µM	11 µM	17.5 µM	13.3 µM	5.31 µM							
COc1cc2c(cc1O)CCN[C@@]21CS[C@H]2c3c(OC(C)=O)c(C)c4c(c3C(COC1=O)N1C2C2c3c(cc(C)c(OC)c3O)CC([C@@H]1O)N2C)OCO4 (some centres undefined)				< 1e-06 µM		0.0277 µM	0.0622 µM			< 1e-06 µM	0.00282 µM	0.000788 µM	0.00269 µM	< 1e-06 µM	< 1 pM		
COc1cc2c(cc1OC)C(C1(O)CCCCC1)NCC2 (centres undefined)	> 100 µM			> 100 µM	> 100 µM	> 100 µM		> 100 µM	> 100 µM	> 100 µM							
N=C(N)SC1c2ccccc2-c2cc([N+](=O)[O-])ccc21 (centres undefined)	22.1 µM	14.6 µM	13.7 µM	21.2 µM	22.6 µM	15.7 µM	19.3 µM	20.9 µM	17.5 µM	21 µM							
Cc1ccc(NCCN(C)CC(C)O)c2c(=O)c3ccc(Cl)cc3sc12 (centres undefined)		8.37 µM						3.57 µM		> 100 µM				5.45 µM		2.31 µM	1.96 µM
Cc1nnc2sc(-c3ccc(N)cc3)nn12			> 100 µM	> 100 µM	> 100 µM	> 100 µM	> 100 µM	> 100 µM	> 100 µM	> 100 µM							
Nc1nc(Cl)cc(NCCCCO)n1	> 100 µM	> 100 µM	> 100 µM	> 10 µM	> 100 µM	> 100 µM		> 100 µM	> 100 µM	> 100 µM							
O=S(=O)(O)c1cc(O)c2c(O)c(N=Nc3ccc(/C=C/c4ccc(N=Nc5c(S(=O)(=O)O)cc6cc(S(=O)(=O)O)cc(O)c6c5O)cc4S(=O)(=O)O)c(S(=O)(=O)O)c3)c(S(=O)(=O)O)cc2c1	> 100 µM	> 100 µM	> 100 µM	> 100 µM	> 100 µM	> 100 µM	> 100 µM	> 100 µM	> 100 µM	> 100 µM							
